In brackets after ≈: the same amount, converted by molar mass.
Tests used:
L. mexicana [1] = settings: administered orally; cited from earlier work
[2] = test system: L. mexicana intracellular amastigotes; type: cell-based, Leishmania mexicana
[3] = Kinetic aqueous solubility; type: physicochemical; settings: pH 7.4, Sol. (aqueous solubility)
L. mexicana [4] = experiment: Murine model of cutaneous leishmaniasis, footpad lesion size; type: in vivo, BALB/c mice; settings: PO 50mg/kg/day for 10 days; p < 0.0001, Mann–Whitney

In the case of `Cc1ccc(-c2nc3ccccc3s2)cc1NC(=O)c1cc([N+](=O)[O-])c(N2CCN(C)CC2)cc1Cl` [compound 4], the “efficacy in murine model of cutaneous leishmaniasis” value (L. mexicana [1]) is given as “less efficacious than the positive control, miltefosine”.

In the case of `Cc1ccc(-c2nc3ccccc3s2)cc1NC(=O)c1ccc(F)c([N+](=O)[O-])c1` [compound 10], the “antileishmanial activity in words” value ([2]; L. mexicana amastigotes) is reported as “active”.

For `O=C(Nc1cccc(-c2ncco2)c1)c1cc([N+](=O)[O-])c(F)cc1F` [compound 71], the solubility [3] was roughly 9 µM (≈ 3.11 µg/mL).

In the case of `O=C(Nc1ccc(Cl)c(Cl)c1)c1ccc(N2CCNCC2)c([N+](=O)[O-])c1` [compound 79], the EC50 ([2]; Leishmania mexicana, J774.A1, read-out: L. mexicana EC50, intracellular amastigotes in J774A.1 macrophages, mean ± SD, at least three experiments) is reported as 0.66 µM and the “lesion size vs vehicle” value (L. mexicana [4]) is reported as “significantly smaller lesions at weeks 4 and 5”.

— article PMC10259451 (Journal of Medicinal Chemistry, 2023)
